Test results published in patent US20240252668A1, “ANTIBODY DRUG CONJUGATES AND METHODS FOR MAKING THEREOF” (Novartis AG, priority 2021, published 2024).
Like-named read-outs stand apart in the source and are kept apart here. Starred links: 1 amine or outer side, 2 acyl side, 3 side chain; linkers in the order of their positions; H or OH if unused. Positions of bridges follow the written chain, without caps; N, C: chain ends. Non-standard residues stand in square brackets, D forms with d. Residues, ends and D or L forms follow the SMILES beside them. *: point of attachment. Leu(3R-OH,Nα-propionyl) = CCC(=O)N[C@H](C(=O)*)[C@H](O)C(C)C; X1 = CC(C)[C@@H](O[*:3])[C@H](N[*:1])C(=O)[*:2]; X5 = CSC[C@@H](O[*:3])[C@H](N[*:1])C(=O)[*:2]; X4 = CCC(=O)N[C@H](C(=O)*)[C@H](O)CSC; NMeT = CN[C@H](C(=O)O)[C@@H](C)O; dPhLac = O=C(O)[C@H](O)Cc1ccccc1; NMeA = CN[C@@H](C)C(=O)O; NMeDha = C=C(NC)C(=O)O

Legend:
[1] = tested on: 92.1 uveal melanoma cell line (heterozygous GNAQ Q209L); test: Cell proliferation assay (resazurin cell viability), 92.1 cell line; assay type: cell-based
Source text: (§1) Cell Proliferation Assays with Chromodepsins (compounds (A1) and 2-15): Cell line descriptions: 92.1—uveal melanoma cell line, derived from primary tumor, harboring heterozygous GNAQ Q209L mutation. Purchased from Sigma Aldrich. MP41 (CRL-3297) -uveal melanoma cell line, derived from primary tumor, harboring heterozygous GNA11 Q209L mutation. Purchased from ATCC. A375—skin melanoma cell line, harboring homozygous BRAF V600E mutation. Origin: Cancer Cell Line Encyclopedia (CCLE). SK-MEL-30—skin melanoma cell line, harboring heterozygous NRAS Q61K mutation. Origin: CCLE.
(§2) Cells were cultured in 96-well plates in a total volume of 100 μL at 37° C., 5% CO2 and 95% relative humidity. All cell lines were cultured in RPMI Medium (RPMI 1640 w/o L-glutamine, Bioconcept ref. 1-41F01-I) except A375, DMEM medium (DMEM high glucose (4.5 g/L), Bioconcept, ref. 1-26F01-I), and supplemented with 10% FCS (Bioconcept, ref. 2-01F30-I). Two to three thousand cells were seeded in 96-well plates per well the night before they were treated with compounds (concentration range: from 260 nM to 0.036 nM with ⅓ dilution steps; for 7 the concentration range was increased from 10000 nM to 1.52 nM with ⅓ dilution steps). Cell viability was measured by addition of 10 ul of resazurin per well after 96 hours of treatment. Results were analyzed and plotted using GraphPad Prism 9.0.1.

[2] = tested on: MP41 uveal melanoma cell line (heterozygous GNA11 Q209L); test: Cell proliferation assay (resazurin cell viability), MP41 cell line; assay type: cell-based
Source text: as §1, §2

[3] = tested on: A375 skin melanoma cell line (homozygous BRAF V600E); test: Cell proliferation assay (resazurin cell viability), A375 cell line; assay type: cell-based
Source text: as §1, §2

[4] = tested on: SK-MEL-30 skin melanoma cell line (heterozygous NRAS Q61K); test: Cell proliferation assay (resazurin cell viability), SK-MEL-30 cell line; assay type: cell-based
Source text: as §1, §2

[5] = tested on: 92.1 and MP41 cell lines (GNAQ/GNA11 mutant uveal melanoma); test: Cell proliferation assays, potency ranking over both uveal melanoma lines; assay type: cell-based; details: 92.1 and MP41 cell lines
Source text: The selective antiproliferative profile of the chromodepsins against GNAQ/GNA11 mutant cell lines is confirmed by the lack of activity against the A375 and SK MEL 30 cell lines that are independent from GNAQ/GNA11 signaling. The potency ranking using the 92.1 and MP41 cell lines is in good agreement with the previously SAR studies. […] These findings are in line with a recent report from Voss et al., highlighting the importance of the “lipophilic anchors” of compound (A1) at the residues varied in compounds 2 and 3, in context of binding kinetics and prolonged residence time on the target proteins. The retained potency of compound 4 indicates a promising exit vector for potential synthetic or biosynthetic modifications of the scaffold. […] The linearized depsipeptides compounds 5-7 lack any antiproliferative activity. In this experimental setup, the cellular permeability of the compounds was a crucial factor contributing to the observed antiproliferative potency. Therefore, all compounds were characterized in a low efflux MCDK assay and determined their exposed polar surface areas (EPSA) in order to assess their passive cellular permeabilities. All macrocyclic chromodepsins that feature the N acyl Hle side chain show similar results concerning their % fraction absorbed (% FA; average ˜60% FA+20%) and EPSA values.
as §1, §2

MDCK-LE monolayers = test: Cell-based transwell assay with MDCK-low efflux monolayers (passive permeability); assay type: in vitro ADME; details: MDCK-LE monolayers
Protocol: Cell-based transwell assays with MDCK-low efflux monolayers: Compounds (A1) and 2-15 were tested in MDCK cell sub-clones with low effluxt ransporter activity (MDCK-LE) in order to determine their passive permeability. The incubations were performed at a contract research organization as described previously.

[6] = EPSA determination by supercritical fluid chromatography; assay type: physicochemical; details: modified EPSA method, SFC
Protocol: […] by supercritical fluid chromatography: Compounds (A1) and 2-15 were tested by supercritical fluid chromatography (SFC) to determine their ESAPSA values. Samples were analyzed using a Chirex 3014 column ([…], 3×100 mm column, 100 Å pore size; Phenomenex. The starting conditions were 5% methanol containing 20 mM ammonium formate and 95% scCO2. The gradient was increased linearly to 60% methanol containing 20 mM ammonium formate in 4.5 min.

[7] = 92.1 (GNAQ Q209L), 96 hours of treatment, read-out: GI50 by cell line, 92.1
[8] = 92.1 cell line, average of Rep. 1 and 2, read-out: GI50 92.1 Average
[9] = 92.1 cell line, replicate 1, read-out: GI50 92.1 Rep. 1
[10] = 92.1 cell line, replicate 2, read-out: GI50 92.1 Rep. 2
[11] = MP41 (GNA11 Q209L), 96 hours of treatment, read-out: GI50 by cell line, MP41
[12] = MP41 cell line, average of Rep. 1 and 2, read-out: GI50 MP41 Average
[13] = MP41 cell line, replicate 1, read-out: GI50 MP41 Rep. 1
[14] = MP41 cell line, replicate 2, read-out: GI50 MP41 Rep. 2
[15] = A375 (GNAQ/11 wild type), 96 hours of treatment, read-out: GI50 by cell line, A375
[16] = A375 cell line, average of Rep. 1 and 2, read-out: GI50 A375 Average
[17] = A375 cell line, replicate 1, read-out: GI50 A375 Rep. 1
[18] = A375 cell line, replicate 2, read-out: GI50 A375 Rep. 2
[19] = SK-MEL-30 (GNAQ/11 wild type), 96 hours of treatment, read-out: GI50 by cell line, SK-MEL-30
[20] = SK-MEL-30 cell line, average of Rep. 1 and 2, read-out: GI50 SK-MEL-30 Average
[21] = SK-MEL-30 cell line, replicate 1, read-out: GI50 SK-MEL-30 Rep. 1
[22] = SK-MEL-30 cell line, replicate 2, read-out: GI50 SK-MEL-30 Rep. 2

Structure (SMILES) | GI50 [1, 7] [nM] | GI50 [1, 8] [nM] | GI50 [1, 9] [nM] | GI50 [1, 10] [nM] | GI50 [2, 11] [nM] | GI50 [2, 12] [nM] | GI50 [2, 13] [nM] | GI50 [2, 14] [nM] | GI50 [3, 15] [nM] | GI50 [3, 16] [nM] | GI50 [3, 17] [nM] | GI50 [3, 18] [nM] | GI50 [4, 19] [nM] | GI50 [4, 20] [nM] | GI50 [4, 21] [nM] | GI50 [4, 22] [nM] | loss of potency compared to compound (A1) (growth inhibition) [5] | % Fraction absorbed (MDCK-LE monolayers) [%] | % Recovery (MDCK-LE monolayers) [%] | Papp A − B (MDCK-LE monolayers) [×10⁻⁶ cm/s] | also measured
C=C1C(=O)N[C@@H](C)C(=O)N(C)[C@@H](C)C(=O)N[C@@H]([C@H](OC(=O)[C@@H](NC(=O)CC)[C@H](O)C(C)C)C(C)C)C(=O)N(C)[C@@H]([C@@H](C)OC)C(=O)O[C@H](CSC)[C@H](NC(C)=O)C(=O)O[C@H](Cc2ccccc2)C(=O)N1C [Compound 2] (Ac-[X5][dPhLac][NMeDha]A[NMeA][X1](Leu(3R-OH,Nα-propionyl))[NMeT](Me); ester 1-C) | 9.8 | 9.8 | 8 | 11.6 | 3.7 | 3.7 | 3.17 | 4.3 | > 260 | > 260 | > 260 | > 260 | > 260 | > 260 | > 260 | > 260 | ~15 fold | 72.6 | 72 | 6.35 | EPSA [6]: 104 A^2
C=C1C(=O)N[C@@H](C)C(=O)N(C)[C@@H](C)C(=O)N[C@@H]([C@@H](CSC)OC(=O)[C@@H](NC(=O)CC)[C@H](O)C(C)C)C(=O)N(C)[C@@H]([C@@H](C)OC)C(=O)O[C@H](C(C)C)[C@H](NC(C)=O)C(=O)O[C@H](Cc2ccccc2)C(=O)N1C [Compound 3] (Ac-[X1][dPhLac][NMeDha]A[NMeA][X5](Leu(3R-OH,Nα-propionyl))[NMeT](Me); ester 1-C) | 10.4 | 10.4 | 9.05 | 11.7 | 4 | 4 | 3.12 | 4.89 | > 260 | > 260 | > 260 | > 260 | > 260 | > 260 | > 260 | > 260 | ~15 fold | 86.1 | 90 | 12.2 | EPSA [6]: 98 A^2
C=C1C(=O)N[C@@H](C)C(=O)N(C)[C@@H](C)C(=O)N[C@@H]([C@H](OC(=O)[C@@H](NC(=O)CC)[C@H](O)CSC)C(C)C)C(=O)N(C)[C@@H]([C@@H](C)OC)C(=O)O[C@H](C(C)C)[C@H](NC(C)=O)C(=O)O[C@H](Cc2ccccc2)C(=O)N1C [Compound 4] (Ac-[X1][dPhLac][NMeDha]A[NMeA][X1](X4)[NMeT](Me); ester 1-C) | 1.2 | 1.2 | 0.91 | 1.5 | 0.5 | 0.5 | 0.45 | 0.53 | > 260 | > 260 | > 260 | > 260 | > 260 | > 260 | > 260 | > 260 | two-fold | 32.5 | 75 | 1.71 | EPSA [6]: 104 A^2
